# Measurements taken from paper PMC6242746 (Chemistry, an Asian journal, 2018).
# Columns and labels:
# [1] = tested on: HeLa cells; experiment: Percentage of peptide remained in HeLa cell lysate; assay type: in vitro ADME; details: 200 μM alone or with 100 nM BTZ, 1 h; cell lysate or culture medium
# [2] = Self-assembly: hydrogelation and nanofiber formation; assay type: physicochemical; details: 500 μM, TEM images
Substance,Degradation in HeLa cells compared with 1 (in words) [1],Nanofiber formation (TEM) [2]
Nap-Phe-Phe-Asn [compound 2],degrade slower than 1,can form nanofibers
Nap-Phe-Phe-Glu [compound 3],degrade slower than 1,can form nanofibers
